# Measurements from the Kinase Knowledgebase extract (Sharma et al. 2016).
# Where “and” joins values, the source holds several entries; their conditions need not be identical. Equal values may be shown once.
# Target: PIK3CA (human) (UniProt P42336)
# Experiment: Enzyme Assay
# Sequence of PIK3CA (human) (P42336 whole entry, looked up): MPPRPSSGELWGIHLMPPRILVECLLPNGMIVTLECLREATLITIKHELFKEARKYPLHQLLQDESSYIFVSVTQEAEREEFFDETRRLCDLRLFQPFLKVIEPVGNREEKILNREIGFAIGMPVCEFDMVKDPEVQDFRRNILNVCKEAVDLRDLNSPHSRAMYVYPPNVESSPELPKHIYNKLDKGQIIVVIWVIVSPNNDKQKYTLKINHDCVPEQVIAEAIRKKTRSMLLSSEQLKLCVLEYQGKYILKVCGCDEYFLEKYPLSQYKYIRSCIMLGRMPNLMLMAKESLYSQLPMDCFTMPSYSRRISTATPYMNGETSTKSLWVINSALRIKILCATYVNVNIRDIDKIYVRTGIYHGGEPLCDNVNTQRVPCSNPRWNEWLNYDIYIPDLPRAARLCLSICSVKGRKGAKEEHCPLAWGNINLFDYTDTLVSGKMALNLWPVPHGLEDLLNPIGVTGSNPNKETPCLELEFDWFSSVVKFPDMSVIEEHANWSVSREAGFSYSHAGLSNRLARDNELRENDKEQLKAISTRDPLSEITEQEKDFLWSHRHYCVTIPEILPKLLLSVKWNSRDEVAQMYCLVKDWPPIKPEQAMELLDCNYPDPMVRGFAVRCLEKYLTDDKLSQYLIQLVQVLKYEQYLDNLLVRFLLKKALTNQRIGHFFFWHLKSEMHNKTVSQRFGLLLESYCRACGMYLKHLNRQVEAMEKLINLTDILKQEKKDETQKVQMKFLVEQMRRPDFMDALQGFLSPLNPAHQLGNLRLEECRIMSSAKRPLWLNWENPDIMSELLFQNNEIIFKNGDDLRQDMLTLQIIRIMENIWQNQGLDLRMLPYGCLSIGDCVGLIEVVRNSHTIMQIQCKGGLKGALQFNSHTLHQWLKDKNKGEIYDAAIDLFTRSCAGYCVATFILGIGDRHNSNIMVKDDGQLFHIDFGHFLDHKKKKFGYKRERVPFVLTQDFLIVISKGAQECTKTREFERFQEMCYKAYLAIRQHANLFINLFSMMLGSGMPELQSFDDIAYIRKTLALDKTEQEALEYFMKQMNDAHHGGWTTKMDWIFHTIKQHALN
row,IC50,Structure (SMILES)
1,82 nM,CCc1ncnc(-c2ccc(C(=O)N3CCC(OC)CC3)c(F)c2)c1C#Cc1ccc(N)nc1
2,374 nM,CCc1ncnc(-c2ccc(C(=O)N3CCC(C4CCN(C)CC4)CC3)c(Cl)c2)c1C#Cc1ccc(N)nc1
3,67.4 nM,CCc1ncnc(-c2ccc(C(=O)N(C)O)c(Cl)c2)c1C#Cc1ccc(N)nc1
4,77 nM,CCc1ncnc(-c2ccc(C(=O)N3CCC(C)(O)CC3)c(Cl)c2)c1C#Cc1ccc(N)nc1
5,370 nM,CCc1ncnc(-c2ccc(C(=O)N3CCN(CCN(C)C)CC3)c(Cl)c2)c1C#Cc1ccc(N)nc1
6,31.8 nM,CCc1ncnc(-c2ccc(C(=O)N(C)CCN3CCCC3=O)c(C)c2)c1C#Cc1ccc(N)nc1
7,110 nM,CCc1ncnc(-c2ccc(C(=O)N3CCC(C)(O)CC3)c(F)c2)c1C#Cc1ccc(N)nc1
8,115 nM,CCc1ncnc(-c2ccc(C(=O)N3CCN4CCCCC4C3)c(C)c2)c1C#Cc1ccc(N)nc1 (configuration not stated)
9,499 nM,CCc1ncnc(-c2ccc(C(=O)N3CCC(C(F)(F)F)CC3)c(Cl)c2)c1C#Cc1ccc(N)nc1
10,90.7 nM,CCc1ncnc(-c2ccc(C(=O)N3CCN(C4CCCC4)CC3)c(C)c2)c1C#Cc1ccc(N)nc1
11,405 nM,CCc1ncnc(-c2ccc(C(=O)N3CCCN(C)CC3)c(Cl)c2)c1C#Cc1ccc(N)nc1
12,93.5 nM,CCc1ncnc(-c2ccc(C(=O)N3CCC(OC)CC3)c(Cl)c2)c1C#Cc1ccc(N)nc1
13,65 nM,CCc1ncnc(-c2ccc(C(=O)N3CCCC(O)C3)c(Cl)c2)c1C#Cc1ccc(N)nc1 (configuration not stated)
14,58 nM,CCc1ncnc(-c2ccc(C(=O)N3CC[C@H](O)C3)c(Cl)c2)c1C#Cc1ccc(N)nc1
15,101 nM,CCc1ncnc(-c2ccc(C(=O)N3CCC(C(C)(C)O)CC3)c(Cl)c2)c1C#Cc1ccc(N)nc1
16,228 nM,CCc1ncnc(-c2ccc(C(=O)N3CCN(CC4CC4)CC3)c(Cl)c2)c1C#Cc1ccc(N)nc1
17,65.3 nM,CCc1ncnc(-c2ccc(C(=O)N3CCCOCC3)c(Cl)c2)c1C#Cc1ccc(N)nc1
18,36.8 nM,CCc1ncnc(-c2ccc(C(=O)N3CCN(S(=O)(=O)CC)CC3)c(C)c2)c1C#Cc1ccc(N)nc1
19,510 nM,CCc1ncnc(-c2ccc(C(=O)NC3CCCN(C)C3)c(Cl)c2)c1C#Cc1ccc(N)nc1 (configuration not stated)
20,164 nM,CCc1ncnc(-c2ccc(C(=O)N3CCNCC3)c(Cl)c2)c1C#Cc1ccc(N)nc1
21,52.9 nM,CCc1ncnc(-c2ccc(C(=O)N3CCC(O)CC3)c(Cl)c2)c1C#Cc1ccc(N)nc1
22,209 nM,CCc1ncnc(-c2ccc(C(=O)N3CCN(c4ccncc4)CC3)c(Cl)c2)c1C#Cc1ccc(N)nc1
23,351 nM,CCc1ncnc(-c2ccc(C(=O)NC3CC(N4CCC(O)CC4)C3)c(F)c2)c1C#Cc1ccc(N)nc1 (configuration not stated)
24,232 nM,CCc1ncnc(-c2ccc(C(=O)N3CCC(N(C)C)CC3)c(C)c2)c1C#Cc1ccc(N)nc1
25,65.6 nM,CCc1ncnc(-c2ccc(C(=O)N3CC[C@@H](O)C3)c(Cl)c2)c1C#Cc1ccc(N)nc1
26,136 nM,CCc1ncnc(-c2ccc(C(=O)N3CCC[C@H]3CO)c(F)c2)c1C#Cc1ccc(N)nc1

row,Structure (SMILES),IC50
1,CCc1ncnc(-c2ccc(C(=O)N3CCC(N4CCN(C)CC4)CC3)c(C)c2)c1C#Cc1ccc(N)nc1,307 nM
2,CCc1ncnc(-c2ccc(C(=O)N3CCC(N4CCC(C)CC4)C3)c(C)c2)c1C#Cc1ccc(N)nc1 (configuration not stated),200 nM
3,CCNc1ccc(C#Cc2c(CC)ncnc2-c2ccc(C(=O)N3CCN(C4CCC4)CC3)c(F)c2)cn1,206 nM
4,CCc1ncnc(-c2ccc(C(=O)N3CC[C@@H](N(C)C)C3)c(OC)c2)c1C#Cc1ccc(N)nc1,357 nM
5,CCc1ncnc(-c2ccc(C(=O)N3CC[S+]([O-])CC3)c(F)c2)c1C#Cc1ccc(N)nc1,46 nM
6,CCc1ncnc(-c2ccc(C(=O)N3CC[S+]([O-])CC3)c(Cl)c2)c1C#Cc1ccc(N)nc1,63.6 nM and 64 nM
7,CCc1ncnc(-c2cc(F)c(C(=O)N3CCC4(CC3)CC(=O)CO4)c(F)c2)c1C#Cc1ccc(N)nc1,144 nM
8,CCc1ncnc(-c2ccc(C(=O)N3CCOC(C)(C)C3)c(F)c2)c1C#Cc1ccc(N)nc1,108 nM
9,CCc1ncnc(-c2ccc(C(=O)N3CCC(OC)CC3)c(C)c2)c1C#Cc1ccc(N)nc1,67.8 nM
10,CCc1ncnc(-c2ccc(C(=O)N3CCCC(N(C)C)C3)c(C)c2)c1C#Cc1ccc(N)nc1 (configuration not stated),173 nM
11,CCc1ncnc(-c2ccc(C(=O)N3CC(O)CO3)c(F)c2)c1C#Cc1ccc(N)nc1 (configuration not stated),64 nM
12,Cc1ncnc(-c2ccc(Cl)c(C(=O)N3CCCCC3)c2)c1C#Cc1ccc(N)nc1,309 nM
13,CCc1ncnc(-c2ccc(Cl)c(C(=O)N(C)C)c2)c1C#Cc1ccc(N)nc1,194 nM
14,CCc1ncnc(-c2ccc(C(=O)N(C)C)c(F)c2)c1C#Cc1ccc(C)nc1,222 nM
15,CCc1ncnc(-c2ccc(C(=O)N3CCN(C(C)C)CC3)c(Cl)c2)c1C#Cc1ccc(N)nc1,246 nM
16,CCc1ncnc(-c2ccc(C(=O)N3C[C@H]4C[C@@H]3CN4C)c(F)c2)c1C#Cc1ccc(N)nc1,333 nM
